Values of other authors as cited in patent US20150111372A1 (priority 2013, published 2015).
Like-named read-outs stand apart in the source and are kept apart here.

Experiments:
livers of chickens = conditions: in vivo

| SMILES | Solubility, Water (pH 2) | Solubility, Water (pH 5) | levels of arsenic in the livers of chickens (livers of chickens) |
| --- | --- | --- | --- |
| O=C(O)CNCP(=O)(O)O [N-(phosphonomethyl)glycine), N-(phosphonomethyl)glycine] | pH 2: 10 g/L | pH 5-9: 1 kg/L |  |
| O=[N+]([O-])c1cc([As](=O)(O)O)ccc1O [Roxarsone, 4-Hydroxy-3-nitrobenzenearsonic acid] |  |  | elevated (but 'very low') levels |
